In patent US20240197700A1, “Methods and Compositions for Treating Lysosomal Storage Disorders” (Sanford Health, priority 2021, published 2024):
“Also recorded” adds a separate entry of the source.

Columns and labels:
Cln2^R207X mice [1] = test: Microglial activation (CD68) in brain of Cln2^R207X mice; type: in vivo, mouse
Description: (§1) Specific experimental details are included in figure legends. In general, after collection and preparation, MEFs and PNCs were dosed with vehicle or AF38469 (40 nM, 400 nM. or 4 μM) on DIV3 and DIV5. On DIV7, cells were treated with the following dyes: Hoechst 33342 (1:1000 dilution), LysoTrackerT™ Red DND-99 (1:10,000 dilution), fixed, and imaged. Mice were given vehicle or AF38469 (78.125 μg/ml, 3.125 μg/ml, 0.3125 μg/ml or 0.03125 μg/ml equating approximately to 250 μg/mouse/day, 10 μg/mouse/day, 1 μg/mouse/day, and […], respectively, given a mouse's daily water intake of approximately 3.2 ml per day) in drinking water beginning at wean. Body weight was measured bi-weekly, and a force actimeter test was performed on Cln2^R207X mice at 10 weeks of age. Body weight was measured every month for Cln3^Δex7/8 mice. At 11 and 16 weeks of age, respectively, Cln2^R207X and Cln3^Δex7/8 mice along with age matched wild type control mice were CO2 euthanized and intracardially perfused with PBS. Brains were collected and placed on a 1 mm sagittal brain block. Brains were sliced at the midline and 3 mm right of the midline. One hemisphere was fixed in 4% PFA and sectioned at 50 microns on a vibratome. Immunohistochemistry was performed on free-floating sections. For mitochondrial ATP synthase subunit C (SubC), glial fibrillary acidic protein (GFAP), and cluster of differentiation 68 (CD68) immunolabeling, primary antibodies included anti-SubC (Abcam, ab181243; 1:1000), anti-GFAP (Dako, Z0334; 1:5000), anti-CD68 (AbD Serotec, MCA1957; 1:2000), and secondary antibodies included anti-rabbit biotinylated (Vector Labs, BA-1000 1:1000) and anti-rat (Vector Labs, BA-9400 1:1000). Coverslips were mounted on slides using antifade-mounting media and were stored in the dark before imaging. Sections were imaged and analyzed using an Aperio Digital Pathology Slide Scanner (AT2) and associated software. Images were extracted from S1BF of the somatosensory cortex and the VPM/VPL of the thalamus, with multiple images taken of multiple tissues from each animal.
Short-term chronic treatment with AF38469 impacts glial activation in Cln2^R207X mice. Beginning at wean, wild type and Cln2^R207X mice were treated with vehicle (0.2408% DMSO) or AF38469 (0.03125 μg/ml, 0.3125 μg/ml, 3.125 μg/ml, 78.125 μg/ml) continuously through the drinking water continuing until sacrifice at 11 weeks. […] Sections were imaged and analyzed using an Aperio Digital Pathology Slide Scanner (AT2) and associated software. […] Percent area of immunoreactivity were quantified using a threshold analysis in ImageJ™. […]

TFEB target genes = test: Comparative transcriptomic analysis (RNA sequencing, DEGs) in wild type MEFs; type: cell-based, mouse; conditions: 40 nM, dosed DIV3, RNA isolation DIV5
Description: Comparative transcriptomic analysis of differentially expressed genes in AF38469 treated and vehicle treated wild type mouse embryonic fibroblasts. Wild type mouse embryonic fibroblasts were treated with vehicle or AF38469 (40 nM). Cells were plated on in vitro day 0, and cells were dosed with drug-containing media on DIV3, collection and RNA isolation occurred on DIV5. RNA sequencing and differentially expressed gene (DEG) analysis was performed with Novogene. DEGs were compared to lists of lysosomal genes and genes under TFEB regulation.

Cln2^R207X mice [2] = test: Astroglial activation (GFAP) in brain of Cln2^R207X mice; type: in vivo, mouse
Description: as §1
Short-term chronic treatment with AF38469 impacts glial activation in Cln2^R207X mice. Beginning at wean, wild type and Cln2^R207X mice were treated with vehicle (0.2408% DMSO) or AF38469 (0.03125 μg/ml, 0.3125 μg/ml, 3.125 μg/ml, 78.125 μg/ml) continuously through the drinking water continuing until sacrifice at 11 weeks. Upon sacrifice, one hemisphere of brain was sectioned at 50 microns on a vibratome; DAB staining immunohistochemistry was then performed using anti-GFAP (Dako, Z0334; 1:5000), anti-CD68 (AbD Serotec, MCA1957; 1:2000), anti-rabbit biotinylated (Vector Labs, BA-1000 1:1000), and anti-rat (Vector Labs, BA-9400 1:1000). Sections were imaged and analyzed using an Aperio Digital Pathology Slide Scanner (AT2) and associated software. Images were extracted from S1BF of the somatosensory cortex and the VPM/VPL of the thalamus. Percent area of immunoreactivity were quantified using a threshold analysis in ImageJ™. Statistical analyses were performed using GraphPad Prism™ (v8.4.3; San Diego, CA). […] Increasing concentrations of AF38469 and corresponding genotypes are shown along the x-axis. Nested one-way ANOVA. Mean±S.E.M. Dunnett's multiple comparisons test compared to the mutant vehicle treated group. *p<0.05, **p<0.01, ***p<0.001, ****p<0.0001. Reactive gliosis including activated microglia and reactive astrocytes is one of the histopathologies associated with neurodegenerative diseases such as NCLs.

Cln2^R207X mice [3] = test: SubC burden (immunohistochemistry) in brain of Cln2^R207X mice; type: in vivo, mouse; conditions: for Subunit C burden: somatosensory cortex
Description: as §1
Short-term chronic treatment with AF38469 reduces storage material burden in Cln2^R207X and Cln3^Δex7/8 mice. Beginning at wean, wild type and Cln2^R207X mice were treated with vehicle (0.2408% DMSO) or AF38469 (0.03125 μg/ml, 0.3125 μg/ml, 3.125 μg/ml, 78.125 μg/ml) continuously through the drinking water continuing until sacrifice at 11 weeks. […] Sections were imaged and analyzed using an Aperio Digital Pathology Slide Scanner (AT2) and associated software. […] Percent area of immunoreactivity were quantified using a threshold analysis in ImageJ™. […]

[4] = higher doses, summary statement

For `Cc1cccc(NC(=O)c2ccc(C(F)(F)F)cc2C(=O)O)n1` [AF38469, 2-((6-methylpyridin-2-yl)carbamoyl)-5-(trifluoromethyl)benzoic acid], which “microglial activation (CD68)” value (Cln2^R207X mice [1]; 3.125 μg/ml, 78.125 μg/ml, somatosensory cortex) is on record?
Its value is “did not significantly impact”.

What about the “microglial activation (CD68)” value (Cln2^R207X mice [1]; 78.125 μg/ml, VPM/VPL of the thalamus) of the same molecule?
The value was “significantly increased”.

And the CD68 reactivity (Cln2^R207X mice [1]; [4])?
Its CD68 reactivity is “increased or had no impact”.

What about the “microglial activation (CD68)” value (Cln2^R207X mice [1]; lower doses 0.03125 μg/ml, 0.3125 μg/ml, somatosensory cortex) of the same molecule?
Its value is “significantly and potently decreased”.

And the “all lysosomal differentially expressed genes or lysosomal genes not regulated by TFEB” value (TFEB target genes)?
Its value is “no distinct pattern of up or down regulation”.

And the “expression of TFEB target genes” value (TFEB target genes)?
Its value is “stimulated increased expression; also recorded: stimulates; also recorded: distinct pattern of upregulation”.

What about the “astroglial activation (GFAP)” value (Cln2^R207X mice [2]; 3.125 μg/ml, 78.125 μg/ml, VPM/VPL of the thalamus) of the same molecule?
The value was “did not impact”.

And the “astroglial activation (GFAP)” value (Cln2^R207X mice [2]; 3.125 μg/ml, somatosensory cortex)?
Its value is “significantly increased”.

And the “astroglial activation (GFAP)” value (Cln2^R207X mice [2]; 78.125 μg/ml, somatosensory cortex)?
The value was “had no impact”.

What about the GFAP reactivity (Cln2^R207X mice [2]; [4]) of the same molecule?
The GFAP reactivity was “increased or had no impact”.

And the “astroglial activation (GFAP)” value (Cln2^R207X mice [2]; lower doses 0.03125 μg/ml, 0.3125 μg/ml)?
Its value is “had no significant impact; also recorded: did not significantly impact”.

And the “Subunit C burden” value (Cln2^R207X mice [3]; 0.03125 μg/ml, 0.3125 μg/ml in drinking water, 11 weeks)?
Its value is “significantly decreased”.

And the SubC burden (Cln2^R207X mice [3]; 3.125 μg/ml, 78.125 μg/ml in drinking water, VPM/VPL of the thalamus, 11 weeks, vs vehicle Cln2^R207X)?
Its SubC burden is “did not have an impact”.

And the “Subunit C burden” value (Cln2^R207X mice [3]; 78.125 μg/ml in drinking water, 11 weeks)?
The value was “significantly decreased”.

And the SubC accumulation (Cln2^R207X mice [3]; overall statement, short term treatment, Cln2^R207X)?
The SubC accumulation was “reduces”.
